# How the values were obtained:
# Assay in all cases: KinomeScan
# Type in all cases: binding
# Conditions in all cases: 1 μM
# [1] = biological target: T1, ABL1(F317L)-phosphorylated (Homo sapiens, UniProt P00519, F317L)
# T1 construct: purchased DiscoverX (KINOMEscan)
# Description: (§1) Assays were performed essentially as described previously. For most assays, kinase-tagged T7 phage strains were grown in parallel in 24-well blocks in an E. coli host derived from the BL21 strain. E. coli were grown to log-phase and infected with T7 phage from a frozen stock (multiplicity of infection ~0.1) and incubated with shaking at 32 °C until lysis (~90 min). The lysates were centrifuged (6000× g) and filtered (0.2 μm) to remove cell debris. The remaining kinases were produced in HEK-293 cells and subsequently tagged with DNA for qPCR detection. […] The liganded beads were blocked with excess biotin and washed with blocking buffer (SeaBlock (Pierce, ThermoFisher Scientific, Illkirch, France), 1% BSA, 0.05% Tween 20, 1 mM DTT) to remove unbound ligand and to reduce non-specific phage binding. […] An 11-point threefold serial dilution of each test compound was prepared in 100% DMSO at 100× final test concentration which and subsequently diluted to 1× in the assay. All reactions were performed in polystyrene 96-well plates in a final volume of 0.135 mL. […] The kinase concentration in the eluates was measured by qPCR.
# ABL2 = biological target: T2, ABL2 (Homo sapiens, UniProt P42684)
# T2 construct: purchased DiscoverX (KINOMEscan)
# Description: as §1
# BLK = biological target: T3, BLK (Homo sapiens, UniProt P51451)
# T3 construct: purchased DiscoverX (KINOMEscan)
# Description: as §1
# BMPR1B = biological target: T4, BMPR1B (Homo sapiens, UniProt O00238)
# T4 construct: purchased DiscoverX (KINOMEscan)
# Description: as §1
# BRAF = biological target: T5, BRAF (Homo sapiens, UniProt P15056)
# T5 construct: purchased DiscoverX (KINOMEscan)
# Description: as §1
# BRSK1 = biological target: T6, BRSK1 (Homo sapiens, UniProt Q8TDC3)
# T6 construct: purchased DiscoverX (KINOMEscan)
# Description: as §1
# CAMK1G = biological target: T7, CAMK1G (Homo sapiens, UniProt Q96NX5)
# T7 construct: purchased DiscoverX (KINOMEscan)
# Description: as §1
# CAMK4 = biological target: T8, CAMK4 (Homo sapiens, UniProt Q16566)
# T8 construct: purchased DiscoverX (KINOMEscan)
# Description: as §1
# CDC2L1 = biological target: T9, CDC2L1 (Homo sapiens, UniProt P21127)
# T9 construct: purchased DiscoverX (KINOMEscan)
# Description: as §1
# CDC2L5 = biological target: T10, CDC2L5 (Homo sapiens, UniProt Q14004)
# T10 construct: purchased DiscoverX (KINOMEscan)
# Description: as §1
# CDK3 = biological target: T11, CDK3 (Homo sapiens, UniProt Q00526)
# T11 construct: purchased DiscoverX (KINOMEscan)
# Description: as §1
# DDR1 = biological target: T12, DDR1 (Homo sapiens, UniProt Q08345)
# T12 construct: purchased DiscoverX (KINOMEscan)
# Description: as §1
# DYRK1B = DYRK1B (Homo sapiens, UniProt Q9Y463)
# Description: as §1
# [2] = biological target: T13, EGFR(L747-S752del, P753S) (Homo sapiens, UniProt P00533, DEL747-752/P753S)
# T13 construct: purchased DiscoverX (KINOMEscan)
# Description: as §1
# EGFR(L858R) = biological target: T14, EGFR(L858R) (Homo sapiens, UniProt P00533, L858R)
# T14 construct: purchased DiscoverX (KINOMEscan)
# Description: as §1
# ERK3 = biological target: T15, ERK3 (Homo sapiens, UniProt Q16659)
# T15 construct: purchased DiscoverX (KINOMEscan)
# Description: as §1
# FGFR3(G697C) = biological target: T16, FGFR3(G697C) (Homo sapiens, UniProt P22607, G697C)
# T16 construct: purchased DiscoverX (KINOMEscan)
# Description: as §1
# FLT3(D835Y) = biological target: T17, FLT3(D835Y) (Homo sapiens, UniProt P36888, D835Y)
# T17 construct: purchased DiscoverX (KINOMEscan)
# Description: as §1
# HCK = biological target: T18, HCK (Homo sapiens, UniProt P08631)
# T18 construct: purchased DiscoverX (KINOMEscan)
# Description: as §1
# HUNK = biological target: T19, HUNK (Homo sapiens, UniProt P57058)
# T19 construct: purchased DiscoverX (KINOMEscan)
# Description: as §1
# INSR = biological target: T20, INSR (Homo sapiens, UniProt P06213)
# T20 construct: purchased DiscoverX (KINOMEscan)
# Description: as §1
# LKB1 = biological target: T21, LKB1 (Homo sapiens, UniProt Q15831)
# T21 construct: purchased DiscoverX (KINOMEscan)
# Description: as §1
# LZK = biological target: T22, LZK (Homo sapiens, UniProt O43283)
# T22 construct: purchased DiscoverX (KINOMEscan)
# Description: as §1
# MAPKAPK5 = biological target: T23, MAPKAPK5 (Homo sapiens, UniProt Q8IW41)
# T23 construct: purchased DiscoverX (KINOMEscan)
# Description: as §1
# MET(M1250T) = biological target: T24, MET(M1250T) (Homo sapiens, UniProt P08581, M1250T)
# T24 construct: purchased DiscoverX (KINOMEscan)
# Description: as §1
# MLK3 = biological target: T25, MLK3 (Homo sapiens, UniProt Q16584)
# T25 construct: purchased DiscoverX (KINOMEscan)
# Description: as §1
# MST1R = biological target: T26, MST1R (Homo sapiens, UniProt Q04912)
# T26 construct: purchased DiscoverX (KINOMEscan)
# Description: as §1
# MYLK2 = biological target: T27, MYLK2 (Homo sapiens, UniProt Q9H1R3)
# T27 construct: purchased DiscoverX (KINOMEscan)
# Description: as §1
# NEK2 = biological target: T28, NEK2 (Homo sapiens, UniProt P51955)
# T28 construct: purchased DiscoverX (KINOMEscan)
# Description: as §1
# NEK6 = biological target: T29, NEK6 (Homo sapiens, UniProt Q9HC98)
# T29 construct: purchased DiscoverX (KINOMEscan)
# Description: as §1
# SGK3 = biological target: T30, SGK3 (Homo sapiens, UniProt Q96BR1)
# T30 construct: purchased DiscoverX (KINOMEscan)
# Description: as §1
# SIK = biological target: T31, SIK (Homo sapiens, UniProt P57059)
# T31 construct: purchased DiscoverX (KINOMEscan)
# Description: as §1
# SNARK = biological target: T32, SNARK (Homo sapiens, UniProt Q9H093)
# T32 construct: purchased DiscoverX (KINOMEscan)
# Description: as §1
# TLK1 = biological target: T33, TLK1 (Homo sapiens, UniProt Q9UKI8)
# T33 construct: purchased DiscoverX (KINOMEscan)
# Description: as §1
# [3] = biological target: T34, TYK2(JH2domain-pseudokinase) (Homo sapiens, UniProt P29597)
# T34 construct: TYK2(JH2domain-pseudokinase); purchased DiscoverX (KINOMEscan)
# Description: as §1
# YSK4 = biological target: T35, YSK4 (Homo sapiens, UniProt Q56UN5)
# T35 construct: purchased DiscoverX (KINOMEscan)
# Description: as §1
# T29 sequence (Q9HC98 whole entry): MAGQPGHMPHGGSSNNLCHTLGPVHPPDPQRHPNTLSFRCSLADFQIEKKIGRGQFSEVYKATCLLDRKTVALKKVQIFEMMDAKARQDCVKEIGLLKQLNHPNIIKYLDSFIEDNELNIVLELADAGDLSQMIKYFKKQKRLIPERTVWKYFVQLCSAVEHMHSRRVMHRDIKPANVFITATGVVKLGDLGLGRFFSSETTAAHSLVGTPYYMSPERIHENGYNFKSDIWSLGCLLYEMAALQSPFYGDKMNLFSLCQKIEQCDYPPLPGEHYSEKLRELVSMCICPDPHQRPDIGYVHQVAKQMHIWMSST
# T6 sequence (Q8TDC3 whole entry): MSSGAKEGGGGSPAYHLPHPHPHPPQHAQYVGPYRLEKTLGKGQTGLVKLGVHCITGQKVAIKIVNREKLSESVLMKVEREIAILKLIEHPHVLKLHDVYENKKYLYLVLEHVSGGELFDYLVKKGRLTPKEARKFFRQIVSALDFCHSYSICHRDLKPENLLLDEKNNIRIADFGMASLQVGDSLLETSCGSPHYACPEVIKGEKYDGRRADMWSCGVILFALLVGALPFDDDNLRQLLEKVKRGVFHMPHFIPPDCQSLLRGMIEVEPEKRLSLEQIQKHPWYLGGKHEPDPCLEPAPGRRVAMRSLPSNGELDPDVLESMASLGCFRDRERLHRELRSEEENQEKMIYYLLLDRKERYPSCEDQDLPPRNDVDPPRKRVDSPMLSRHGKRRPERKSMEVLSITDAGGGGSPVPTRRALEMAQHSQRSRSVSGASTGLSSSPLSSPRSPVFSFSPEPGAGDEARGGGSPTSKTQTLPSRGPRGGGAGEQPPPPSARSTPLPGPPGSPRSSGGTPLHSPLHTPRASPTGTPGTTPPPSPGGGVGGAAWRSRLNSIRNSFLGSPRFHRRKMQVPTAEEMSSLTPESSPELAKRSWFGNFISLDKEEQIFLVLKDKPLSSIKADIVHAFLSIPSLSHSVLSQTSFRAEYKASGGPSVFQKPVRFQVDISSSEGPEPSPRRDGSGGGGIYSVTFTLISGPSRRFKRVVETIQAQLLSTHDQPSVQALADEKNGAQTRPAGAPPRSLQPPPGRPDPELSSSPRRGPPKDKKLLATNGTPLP
# T1 sequence (P00519 whole entry F317L): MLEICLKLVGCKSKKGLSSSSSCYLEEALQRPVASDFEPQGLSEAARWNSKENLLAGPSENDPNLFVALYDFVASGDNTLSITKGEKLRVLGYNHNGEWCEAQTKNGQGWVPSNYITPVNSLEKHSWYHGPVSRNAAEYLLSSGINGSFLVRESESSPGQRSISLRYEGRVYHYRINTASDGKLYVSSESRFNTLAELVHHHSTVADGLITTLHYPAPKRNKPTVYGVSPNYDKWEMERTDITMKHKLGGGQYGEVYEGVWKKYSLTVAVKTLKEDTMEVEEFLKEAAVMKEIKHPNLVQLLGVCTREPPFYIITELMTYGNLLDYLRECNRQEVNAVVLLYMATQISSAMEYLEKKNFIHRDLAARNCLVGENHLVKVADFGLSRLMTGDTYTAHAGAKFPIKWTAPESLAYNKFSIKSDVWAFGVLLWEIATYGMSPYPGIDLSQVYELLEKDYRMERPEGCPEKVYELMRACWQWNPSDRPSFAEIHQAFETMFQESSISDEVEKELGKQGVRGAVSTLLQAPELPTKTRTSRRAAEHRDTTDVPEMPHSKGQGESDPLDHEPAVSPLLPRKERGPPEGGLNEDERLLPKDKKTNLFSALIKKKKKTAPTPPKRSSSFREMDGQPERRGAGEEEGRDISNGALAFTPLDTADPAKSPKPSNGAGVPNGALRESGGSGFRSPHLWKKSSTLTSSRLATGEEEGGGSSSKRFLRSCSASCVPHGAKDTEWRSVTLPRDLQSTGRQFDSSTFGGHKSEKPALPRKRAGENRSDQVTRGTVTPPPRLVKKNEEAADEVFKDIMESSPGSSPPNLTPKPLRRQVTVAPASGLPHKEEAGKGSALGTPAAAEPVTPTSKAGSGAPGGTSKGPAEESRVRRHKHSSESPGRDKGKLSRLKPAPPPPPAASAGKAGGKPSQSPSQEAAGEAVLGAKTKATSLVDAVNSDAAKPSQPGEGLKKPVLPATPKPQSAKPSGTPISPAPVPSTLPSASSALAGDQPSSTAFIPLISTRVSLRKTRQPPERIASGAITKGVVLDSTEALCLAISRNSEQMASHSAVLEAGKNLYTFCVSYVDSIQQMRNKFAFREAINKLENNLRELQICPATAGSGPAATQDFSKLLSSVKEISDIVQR
# T33 sequence (Q9UKI8 whole entry): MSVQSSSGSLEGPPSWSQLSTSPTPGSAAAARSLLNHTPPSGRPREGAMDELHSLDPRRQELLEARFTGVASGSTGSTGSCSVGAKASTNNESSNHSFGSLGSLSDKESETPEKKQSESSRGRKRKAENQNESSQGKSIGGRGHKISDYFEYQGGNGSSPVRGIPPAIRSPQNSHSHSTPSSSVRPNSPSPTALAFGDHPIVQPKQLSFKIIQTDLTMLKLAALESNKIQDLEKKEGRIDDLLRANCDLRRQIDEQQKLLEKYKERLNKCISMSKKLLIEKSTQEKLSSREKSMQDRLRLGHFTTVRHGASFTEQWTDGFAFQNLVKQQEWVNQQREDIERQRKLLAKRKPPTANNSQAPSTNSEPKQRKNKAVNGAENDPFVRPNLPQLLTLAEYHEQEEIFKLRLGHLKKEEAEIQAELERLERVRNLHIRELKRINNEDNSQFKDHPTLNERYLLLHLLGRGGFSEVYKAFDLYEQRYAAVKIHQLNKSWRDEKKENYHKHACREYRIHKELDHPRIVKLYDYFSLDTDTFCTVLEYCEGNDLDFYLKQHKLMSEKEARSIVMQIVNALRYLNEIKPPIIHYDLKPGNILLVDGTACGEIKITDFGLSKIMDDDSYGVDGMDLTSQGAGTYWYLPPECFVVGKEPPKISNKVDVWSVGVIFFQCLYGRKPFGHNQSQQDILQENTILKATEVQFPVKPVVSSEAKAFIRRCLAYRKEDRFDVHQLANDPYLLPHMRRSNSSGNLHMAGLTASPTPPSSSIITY
# T12 sequence (Q08345 19-913): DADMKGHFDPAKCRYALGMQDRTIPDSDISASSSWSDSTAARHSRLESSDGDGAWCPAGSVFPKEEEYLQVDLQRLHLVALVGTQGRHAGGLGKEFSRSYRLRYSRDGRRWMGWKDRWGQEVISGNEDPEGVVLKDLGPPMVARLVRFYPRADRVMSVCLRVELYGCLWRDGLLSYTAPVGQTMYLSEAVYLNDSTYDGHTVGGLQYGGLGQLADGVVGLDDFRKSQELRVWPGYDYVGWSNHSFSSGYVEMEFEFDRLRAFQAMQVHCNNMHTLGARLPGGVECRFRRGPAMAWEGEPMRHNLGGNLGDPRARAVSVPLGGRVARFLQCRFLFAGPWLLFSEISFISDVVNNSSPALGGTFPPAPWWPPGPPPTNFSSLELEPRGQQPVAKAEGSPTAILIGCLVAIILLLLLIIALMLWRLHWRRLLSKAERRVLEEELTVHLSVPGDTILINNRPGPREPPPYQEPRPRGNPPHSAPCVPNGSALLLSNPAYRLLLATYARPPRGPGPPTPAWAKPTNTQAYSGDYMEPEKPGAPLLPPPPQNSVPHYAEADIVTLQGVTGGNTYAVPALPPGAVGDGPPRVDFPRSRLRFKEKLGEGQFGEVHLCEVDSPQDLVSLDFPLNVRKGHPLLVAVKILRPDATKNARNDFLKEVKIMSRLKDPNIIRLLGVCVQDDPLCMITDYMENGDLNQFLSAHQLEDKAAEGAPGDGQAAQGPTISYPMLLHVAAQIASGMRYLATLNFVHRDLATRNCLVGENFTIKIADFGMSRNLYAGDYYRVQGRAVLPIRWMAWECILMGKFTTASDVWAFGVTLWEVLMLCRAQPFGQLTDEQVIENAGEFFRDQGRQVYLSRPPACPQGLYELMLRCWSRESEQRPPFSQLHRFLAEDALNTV
# T32 sequence (Q9H093 whole entry): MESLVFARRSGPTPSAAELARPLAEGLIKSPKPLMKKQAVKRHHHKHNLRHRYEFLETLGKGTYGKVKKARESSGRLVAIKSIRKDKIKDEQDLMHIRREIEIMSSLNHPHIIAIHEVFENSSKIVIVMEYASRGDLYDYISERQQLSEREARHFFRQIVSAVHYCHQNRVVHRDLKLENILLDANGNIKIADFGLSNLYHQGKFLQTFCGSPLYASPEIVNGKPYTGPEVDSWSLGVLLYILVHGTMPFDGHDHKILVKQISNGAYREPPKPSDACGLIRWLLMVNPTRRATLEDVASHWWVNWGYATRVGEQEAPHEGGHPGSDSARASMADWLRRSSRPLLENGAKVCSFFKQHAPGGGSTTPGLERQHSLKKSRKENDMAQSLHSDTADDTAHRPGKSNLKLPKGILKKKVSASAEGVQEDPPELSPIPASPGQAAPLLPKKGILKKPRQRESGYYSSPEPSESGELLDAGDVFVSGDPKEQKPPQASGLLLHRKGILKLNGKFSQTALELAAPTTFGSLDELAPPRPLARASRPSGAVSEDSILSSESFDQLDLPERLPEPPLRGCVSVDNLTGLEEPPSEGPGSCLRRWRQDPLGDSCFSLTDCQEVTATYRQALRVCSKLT
# T30 sequence (Q96BR1 whole entry): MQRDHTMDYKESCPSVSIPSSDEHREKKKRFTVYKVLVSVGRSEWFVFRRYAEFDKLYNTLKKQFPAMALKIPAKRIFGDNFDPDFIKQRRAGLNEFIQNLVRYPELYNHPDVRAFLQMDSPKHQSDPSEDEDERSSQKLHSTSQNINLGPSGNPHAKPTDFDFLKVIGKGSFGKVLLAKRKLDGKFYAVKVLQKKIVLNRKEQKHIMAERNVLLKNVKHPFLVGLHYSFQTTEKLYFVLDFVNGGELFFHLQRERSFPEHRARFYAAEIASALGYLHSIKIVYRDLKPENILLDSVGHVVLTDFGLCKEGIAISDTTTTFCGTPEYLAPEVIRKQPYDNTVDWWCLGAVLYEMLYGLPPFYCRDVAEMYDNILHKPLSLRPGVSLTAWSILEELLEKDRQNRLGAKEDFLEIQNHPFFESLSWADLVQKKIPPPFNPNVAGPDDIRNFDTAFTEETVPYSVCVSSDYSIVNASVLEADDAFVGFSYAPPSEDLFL
structure (smiles),measurement,setting,value
COc1cc(/C=C2\N=C(N)NC2=O)ccc1O [Polyandrocarpamine A],Score,[1],98
same,Score,ABL2,87
same,Score,BLK,100
same,Score,BMPR1B,42
same,Score,BRAF,100
same,Score,BRSK1,100
same,Score,CAMK1G,100
same,Score,CAMK4,94
same,Score,CDC2L1,100
same,Score,CDC2L5,100
same,Score,CDK3,100
same,Score,DDR1,100
same,Score,DYRK1B,25
same,Score,[2],100
same,Score,EGFR(L858R),93
same,Score,ERK3,82
same,Score,FGFR3(G697C),83
same,Score,FLT3(D835Y),100
same,Score,HCK,100
same,Score,HUNK,100
same,Score,INSR,90
same,Score,LKB1,100
same,Score,LZK,100
same,Score,MAPKAPK5,100
same,Score,MET(M1250T),97
same,Score,MLK3,100
same,Score,MST1R,100
same,Score,MYLK2,95
same,Score,NEK2,100
same,Score,NEK6,100
same,Score,SGK3,100
same,Score,SIK,100
same,Score,SNARK,100
same,Score,TLK1,94
same,Score,[3],100
same,Score,YSK4,100

# Reference: publication PMC5666424, “Marine-Derived 2-Aminoimidazolone Alkaloids. Leucettamine B-Related Polyandrocarpamines Inhibit Mammalian and Protozoan DYRK & CLK Kinases” (Marine Drugs, 2017)
